Source: patent US10195156B2, “Compounds and compositions for intracellular delivery of agents” (ModernaTX, Inc., priority 2015, dated 2019)

What was measured:
[1] = Particle size and polydispersity index of nanoparticle compositions (Zetasizer Nano ZS); format: physicochemical
Procedure, shortened: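 Values are size and PDI readings from a Zetasizer Nano ZS. Measurements are taken in 1×PBS; zeta potential, by contrast, uses 15 mM PBS.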

[2] = Encapsulation efficiency of RNA (QUANT-IT RIBOGREEN RNA assay); format: physicochemical
Procedure, shortened: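 RiboGreen fluorescence (ex ~480, em ~520 nm) measured after 15 min at 37 °C on samples at ~5 μg/mL in TE, pH 7.5, ± 2% Triton X-100 solution. After blank subtraction, free RNA is given as intact-sample signal divided by disrupted-sample signal.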

[3] = pKa of nanoparticle compositions; format: physicochemical; details: Table 20-1; rows without footnote mark
[4] = tested on: luciferase (Luc) mRNA expression; assay: Expression of Luc induced by sample formulations, whole-body bioluminescence after intravenous administration; format: in vivo; details: mice, i.v., 0.5 mg/kg; for Total Flux 3 hours / Total Flux 6 hours / Total Flux 24 hours: Table 20-2
Procedure, shortened: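 Read-out is whole-body bioluminescence at 3, 6 and 24 h after a single intravenous dose of 0.5 mg/kg Luc mRNA in nanoparticle formulations. Groups of n=6 mice; PBS and standard MC3 formulation as references.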

[5] = tested on: modified luciferase expression; assay: Expression of Luc in different organs (liver, lung, spleen, femur) 6 hours after intravenous administration; format: in vivo; details: Table 20-3, mice, i.v., 0.5 mpk
Procedure: The efficacy of the nanoparticle compositions presented in Tables 1, 1a, 17-1, 19-1, 20-1 and 21-1 was further evaluated by measuring the expression of modified luciferase in the liver, lung, spleen, and femur upon administration of a given composition. Formulations were administered intravenously to mice (n=3) at a dosage of 0.5 mpk and bioluminescence measured after 6 hours. The standard MC3 formulation and a PBS control were also tested.

IL-6 = assay: Cytokine production induced by sample formulations: IL-6; format: in vivo; details: mice, i.v., 0.5 mpk, 6 hours; for IL-6: Table 20-4, formula (20-I), in pg/mL (unit assumed)
Procedure, shortened: (§1)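 Cytokine levels were quantified at 6 hours in mice given the nanoparticle compositions i.v. at 0.5 mpk. MC3 standard formulation and PBS served as comparators.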

IP-10 = assay: Cytokine production induced by sample formulations: IP-10; format: in vivo; details: mice, i.v., 0.5 mpk, 6 hours; for IP-10: Table 20-4, formula (20-I), in pg/mL (unit assumed)
Procedure, shortened: as §1

[6] = tested on: modified luciferase (Luc) expression; assay: Expression upon intramuscular administration of Luc mRNA and H10 mRNA formulations; format: in vivo; details: 6 hours after intramuscular administration
Procedure: Sample formulations including both modified luciferase (Luc) mRNA and H10 mRNA were prepared and administered intramuscularly at day 1 and day 21 and the resulting expression and immunogenicity were evaluated simultaneously. Formulations including compounds according to formula (20-I) were prepared and administered at doses of 0.001 and 0.01 mpk (e.g., doses of 0.0005 mpk of a formulation including Luc mRNA and a formulation including H10 mRNA or doses of 0.005 mpk of a formulation including Luc mRNA and a formulation including H10 mRNA). As shown in Table 20-4, the total flux was higher upon administration of the second dose for each composition and at each dose level. Total flux was higher for the higher dose level.

Luc expression = Luc expression in CD-1 mice (AUC relative to MC3); format: in vivo; details: Table 7c
Procedure: FIG. 15 is a graph summarizing luciferase expression levels at 6 h after administration of nanoparticle compositions containing compounds of the disclosure to CD-1 mice at a dose of 0.5 mpk. Total light flux values were acquired via body luminescent imaging (BLI) 6 h after administration. In this Figure, the numbers 1-7 and 10 refer to the compositions containing Compounds 4-10 and MC3 respectively.
(§2) In contrast, hEPO expression in rats induced by administration of a nanoparticle composition including a compound according to one of formulae (I), (Ia1)-(Ia6), (Ib), (II), (IIa), (III), and (IIIa) was substantially […] than that measured for MC3. […] Table 7c and 7d show additional protein expressions and clearance data from compositions with various compounds disclosed herein as compared to with MC3.

[7] = Lipid clearance: % dose remaining in mouse liver 6 h and 24 h after administration of nanoparticle compositions; format: in vivo, CD-1 mice; details: Table 7c
Excerpt: as §2

[8] = Table 20-1, rows without footnote mark

| SMILES | PDI ([1]; Table 1b) | Size (nm) ([1]; Table 1b) | EE (%) ([2]; Table 1b) | AUC (p/s*h) (Luc expression) | % Dose Remaining 6 hr [7] [%] | % Dose Remaining 24 hr [7] [%] | also measured |
| --- | --- | --- | --- | --- | --- | --- | --- |
| CCCCCCCCCCCCN(CCO)CCN(CCCCCC(=O)OCCCCC)CCCCCC(=O)OCCCCC [Compound 20-4, Dipentyl 6,6′-((2-(dodecyl(2-hydroxyethyl)amino)ethyl)azanediyl)dihexanoate] |  |  |  |  |  |  | PDI [1, 8]: 0.160; Size (nm) [1, 8]: 82.1 nm; EE (%) [2, 8]: 91.3%; pKa [3]: 6.86; Total Flux 3 hours ([4]; 3 hours): 3.01E+06; Total Flux 6 hours [4]: 1.75E+06; Total Flux 24 hours ([4]; 24 hours): 6.82E+08; Total Flux Femur ([5]; femur): 2.09E+04; Total Flux Liver [5]: 2.93E+05; Total Flux Lung [5]: 1.11E+04; Total Flux Spleen [5]: 4.51E+04; IL-6 (IL-6): 169.3; IP-10 (IP-10): 270.5; Total flux (p/s) 0.001 mpk Dose 1 ([6]; 0.001 mpk): 1.04E+06 p/s; Total flux (p/s) 0.01 mpk Dose 1 ([6]; 0.01 mpk): 9.46E+06 p/s |
| CCCCCCCCCN(CCCCCCCCC)CCN(CCO)CCCCCC(=O)OCCCCC [Compound 20-6, Pentyl 6-((2-(dinonylamino)ethyl)(2-hydroxyethyl)amino)hexanoate] |  |  |  |  |  |  | PDI [1, 8]: 0.220; Size (nm) [1, 8]: 82.5 nm; EE (%) [2, 8]: 94.7%; pKa [3]: 6.73; Total Flux 3 hours ([4]; 3 hours): 3.39E+10; Total Flux 6 hours [4]: 5.44E+06; Total Flux 24 hours ([4]; 24 hours): 5.48E+05; total flux after 3 hours, rank within the named table (in words) ([4]; 3 hours): highest after 3 hours; total flux after 24 hours, rank within the named table (in words) ([4]; 24 hours): lowest; Total Flux Liver [5]: 7.75E+05; Total Flux Lung [5]: 2.32E+04; Total Flux Spleen [5]: 2.35E+05; IL-6 (IL-6): 0; IL-6 induction, rank within the named table (in words) (IL-6): lowest; IP-10 (IP-10): 25.3; IP-10 induction, rank or comparison with IL-6 (in words) (IP-10): lowest; Total flux (p/s) 0.001 mpk Dose 1 ([6]; 0.001 mpk): 8.57E+05 p/s; Total flux (p/s) 0.001 mpk Dose 2 ([6]; 0.001 mpk, Dose 2): 9.79E+05 p/s; Total flux (p/s) 0.01 mpk Dose 1 ([6]; 0.01 mpk): 3.41E+06 p/s; Total flux (p/s) 0.01 mpk Dose 2 ([6]; 0.01 mpk, Dose 2): 6.04E+06 p/s |
| CCCCCCCCCN(CCCCCCCCC)CCN(CCCCCCCCC)CC(=O)N1CCN(C(=O)CN(CCCCCCCCC)CCCCCCC(=O)OCC)CC1 [Compound 53, Ethyl 7-((2-(4-(N-(2-(dinonylamino)ethyl)-N-nonylglycyl)piperazin-1-yl)-2-oxoethyl)(nonyl)amino)heptanoate] | 0.23 | 103.0 | 82.8 | 9.22E+09 | 1.35 | 0.77 |  |
| CCCCCCCCCN(CCCCCCCCC)CCN(CCCCCCCCC)CC(=O)N1CCN(C(=O)CN(CCCCCCCCC)CCCCCC(=O)OCCC)CC1 [Compound 54, Propyl 6-((2-(4-(N-(2-(dinonylamino)ethyl)-N-nonylglycyl)piperazin-1-yl)-2-oxoethyl)(nonyl)amino)hexanoate] | 0.23 | 93.0 | 96.9 | 1.89E+10 | 5.18 | 4.77 |  |
| CCCCCCCCCN(CCCCCCCCC)CCN(CCCCCCCCC)CC(=O)N1CCN(C(=O)CN(CCCCCCCCC)CCCCC(=O)OCCCC)CC1 [Compound 55, Butyl 5-((2-(4-(N-(2-(dinonylamino)ethyl)-N-nonylglycyl)piperazin-1-yl)-2-oxoethyl)(nonyl)amino)pentanoate] | 0.23 | 119.5 | 95.2 | 2.00E+10 | 2.58 | 1.60 |  |
| CCCCCCCCCN(CCCCCCCCC)CCN(CCCCCCCCC)CC(=O)N1CCN(C(=O)CN(CCCCCCCCC)CCCOC(=O)CCCCC)CC1 [Compound 56, 3-((2-(4-(N-(2-(Dinonylamino)ethyl)-N-nonylglycyl)piperazin-1-yl)-2-oxoethyl)(nonyl)amino)propyl Hexanoate] | 0.24 | 117.4 | 99.0 | 1.77E+11 | 1.21 | 0.16 |  |
| CCCCCCCCCN(CCCCCCCC(=O)OC)CCC1CCN(C(=O)CN(CCCCCCCCC)CCN(CCCCCCCCC)CCCCCCCCC)CC1 [Compound 57, Methyl 8-((2-(1-(N-(2-(dinonylamino)ethyl)-N-nonylglycyl)piperidin-4-yl)ethyl)(nonyl)amino)octanoate] | 0.23 | 101.9 | 98.8 | 1.21E+11 | 0.88 | 0.24 |  |
| CCCCCCCCCN(CCCCCCC(=O)OCC)CCC1CCN(C(=O)CN(CCCCCCCCC)CCN(CCCCCCCCC)CCCCCCCCC)CC1 [Compound 58, Ethyl 7-((2-(1-(N-(2-(dinonylamino)ethyl)-N-nonylglycyl)piperidin-4-yl)ethyl)(nonyl)amino)heptanoate] | 0.23 | 112.8 | 98.9 | 1.38E+11 | 1.37 | 0.61 |  |
| CCCCCCCCCN(CCCCCC(=O)OCCC)CCC1CCN(C(=O)CN(CCCCCCCCC)CCN(CCCCCCCCC)CCCCCCCCC)CC1 [Compound 59, Propyl 6-((2-(1-(N-(2-(dinonylamino)ethyl)-N-nonylglycyl)piperidin-4-yl)ethyl)(nonyl)amino)hexanoate] | 0.23 | 104.7 | 98.6 | 1.19E+11 | 6.99 | 5.03 |  |
| CCCCCCCCCN(CCCCC(=O)OCCCC)CCC1CCN(C(=O)CN(CCCCCCCCC)CCN(CCCCCCCCC)CCCCCCCCC)CC1 [Compound 60, Butyl 5-((2-(1-(N-(2-(dinonylamino)ethyl)-N-nonylglycyl)piperidin-4-yl)ethyl)(nonyl)amino)pentanoate] | 0.23 | 105.7 | 98.8 | 2.84E+11 | 21.18 | 15.98 |  |
